Laboratory results published in patent US20260042764A1, “COMPOSITIONS AND METHODS FOR INHIBITION OF KRAS” (TheRas, Inc., priority 2022, published 2026).

Columns and labels:
[1] = molecular target: T1, Avi-KRAS G12D (1-169) GppNHp/RAF1 RBD-3xFLAG (52-151) (Homo sapiens, UniProt P01116, G12D); assay: Raf1-KRAS G12D-GppNHP disruption HTRF assay (Biological Example 1); type: binding
T1 construct: Avi-KRAS G12D (1-169)
Method in brief: (§1)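 Measured with a KRAS/RAF1 HTRF assay at pH 7.5 in 10% DMSO, with two 1 h room-temperature incubations with shaking.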

[2] = molecular target: T2, Avi-KRAS G12R (1-169) GppNHp/RAF1 RBD-3xFLAG (52-151) (Homo sapiens, UniProt P01116, G12R); assay: Raf1-KRAS G12R-GppNHP disruption HTRF assay (Biological Example 1); type: binding
T2 construct: Avi-KRAS G12R (1-169)
Method in brief: as §1

[3] = molecular target: T3, Avi-KRAS G12V (1-169) GppNHp/RAF1 RBD-3xFLAG (52-151) (Homo sapiens, UniProt P01116, G12V); assay: Raf1-KRAS G12V-GppNHP disruption HTRF assay (Biological Example 1); type: binding
T3 construct: Avi-KRAS G12V (1-169)
Method in brief: as §1

[4] = molecular target: T4, Avi-KRAS WT (1-169) GppNHp/RAF1 RBD-3xFLAG (52-151) (Homo sapiens, UniProt P01116); assay: Raf1-KRAS WT-GppNHP disruption HTRF assay (Biological Example 1); type: binding
T4 construct: Avi-KRAS WT (1-169)
Method in brief: as §1

GP2d cells (KRAS G12D) = assay: Cell-based pERK HTRF assay in GP2d cell (Biological Example 2); conditions: GP2d, GP2d (KRAS G12D) cells, pERK HTRF
Method in brief: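 HTRF read-out of pERK (excitation 320 nm, emission 615 nm) after lysates sat 4–24 h at room temperature with Eu cryptate and d2 antibodies.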

SW620 cells (KRAS G12V) = assay: Cell-based pERK HTRF assay in SW620 cell (Biological Example 4); conditions: Homo sapiens, SW-620, SW620 (KRAS G12V) cells, pERK HTRF
Method in brief: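 This assay measures inhibition of ERK phosphorylation downstream of KRAS G12V in intact SW620 cells. Compounds are applied for 4 h over nine half-log concentrations starting at 1 μM, and pERK is quantified by HTRF.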

[5] = KRAS G12D, GppNHp-loaded, class symbols
[6] = KRAS G12R, GppNHp-loaded, class symbols
[7] = KRAS G12V, GppNHp-loaded, class symbols
[8] = KRAS WT, GppNHp-loaded, class symbols
[9] = KRAS G12D, GppNHp-loaded, Table 11
[10] = KRAS G12R, GppNHp-loaded, Table 11
[11] = KRAS G12V, GppNHp-loaded, Table 11
[12] = KRAS WT, GppNHp-loaded, Table 11

T1 sequence (P01116 1-169 isoform P01116-2 G12D): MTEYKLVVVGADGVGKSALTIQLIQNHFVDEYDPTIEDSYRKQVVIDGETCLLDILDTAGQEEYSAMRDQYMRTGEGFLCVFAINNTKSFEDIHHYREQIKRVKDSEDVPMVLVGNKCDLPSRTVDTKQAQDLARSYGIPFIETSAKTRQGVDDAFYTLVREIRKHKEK
T2 sequence (P01116 1-169 isoform P01116-2 G12R): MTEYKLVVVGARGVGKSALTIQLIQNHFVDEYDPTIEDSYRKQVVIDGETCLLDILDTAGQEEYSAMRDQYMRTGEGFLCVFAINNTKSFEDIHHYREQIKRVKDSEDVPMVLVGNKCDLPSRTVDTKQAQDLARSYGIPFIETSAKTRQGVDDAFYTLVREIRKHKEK
T4 sequence (P01116 1-169 isoform P01116-2): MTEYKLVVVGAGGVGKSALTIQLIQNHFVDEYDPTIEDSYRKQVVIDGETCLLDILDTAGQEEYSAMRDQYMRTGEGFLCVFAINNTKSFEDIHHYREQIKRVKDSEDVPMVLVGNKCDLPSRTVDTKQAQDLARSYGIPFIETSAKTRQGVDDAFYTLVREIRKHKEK
T3 sequence (P01116 1-169 isoform P01116-2 G12V): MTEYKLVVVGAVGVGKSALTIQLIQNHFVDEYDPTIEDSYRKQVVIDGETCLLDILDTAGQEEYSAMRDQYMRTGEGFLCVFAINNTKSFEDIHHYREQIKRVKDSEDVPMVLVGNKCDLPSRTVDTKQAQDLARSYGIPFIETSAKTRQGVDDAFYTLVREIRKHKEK

SMILES	IC50 ([1]; KRAS G12D-GppNHp/RAF1 RBD HTRF)	IC50 ([2]; KRAS G12R-GppNHp/RAF1 RBD HTRF)	IC50 ([3]; KRAS G12V-GppNHp/RAF1 RBD HTRF)	IC50 ([4]; KRAS WT-GppNHp/RAF1 RBD HTRF)	IC50 (GP2d cells (KRAS G12D))	IC50 (SW620 cells (KRAS G12V))	IC50 [1, 5]	IC50 [2, 6]	IC50 [3, 7]	IC50 [4, 8]	IC50 (GP2d cells (KRAS G12D); class symbols)	IC50 (SW620 cells (KRAS G12V); class symbols)	IC50 [1, 9]	IC50 [2, 10]	IC50 [3, 11]	IC50 [4, 12]
N#Cc1c(N)sc2c(F)ccc(-c3c(C(F)(F)F)cc4c(N5CC6CCC(C5)N6C(=O)C5CC5)nc(OC[C@@]56CCCN5C[C@H](F)C6)nc4c3F)c12 [Compound 439]	100 to 1000 nM	1000 to 10000 nM	1000 to 10000 nM	1000 to 10000 nM	< 100 nM	< 100 nM	–	–	–	–	–	–	–	–	–	–
CCC(=O)N1CC[C@H]2[C@@H]1CN2c1nc(OC[C@@]23CCCN2C[C@H](F)C3)nc2c(F)c(-c3ccc(F)c4sc(N)c(C#N)c34)c(C(F)(F)F)cc12 (atropisomer, axis not shown) [Compound 642]	–	–	–	–	–	–	1000 to 10000 nM	1000 to 10000 nM	1000 to 10000 nM	1000 to 10000 nM	< 100 nM	100 to 1000 nM	–	–	–	–
CC(=O)N1C[C@@H](N(C)c2nc(OC[C@@]34CCCN3C[C@H](F)C4)nc3c(F)c(-c4ccc(F)c5sc(N)c(C#N)c45)c(C(F)(F)F)cc23)C[C@@H]1C [Compound 279]	< 100 nM	100 to 1000 nM	100 to 1000 nM	100 to 1000 nM	< 100 nM	< 100 nM	–	–	–	–	–	–	–	–	–	–
CN(c1nc(OC[C@@]23CCCN2C[C@H](F)C3)nc2c(F)c(-c3ccc(F)c4sc(N)c(C#N)c34)c(C(F)(F)F)cc12)C12CC(CO)(C1)C2 [Compound 351]	100 to 1000 nM	100 to 1000 nM	1000 to 10000 nM	100 to 1000 nM	< 100 nM	< 100 nM	–	–	–	–	–	–	–	–	–	–
CCN(c1nc(OC[C@@]23CCCN2C[C@H](F)C3)nc2c(F)c(-c3ccc(F)c4sc(N)c(C#N)c34)c(C(F)(F)F)cc12)[C@@H]1CCN(C(=O)N(C)C)[C@@H]1C [Compound 488]	< 100 nM	< 100 nM	100 to 1000 nM	100 to 1000 nM	< 100 nM	< 100 nM	–	–	–	–	–	–	–	–	–	–
CC(=O)N1C[C@H]2CCCN(c3nc(OC[C@@]45CCCN4C[C@H](F)C5)nc4c(F)c(-c5ccc(F)c6sc(N)c(C#N)c56)c(C(F)(F)F)cc34)[C@H]2C1 [Compound 453]	1000 to 10000 nM	1000 to 10000 nM	1000 to 10000 nM	1000 to 10000 nM	< 100 nM	< 100 nM	–	–	–	–	–	–	–	–	–	–
CC(=O)N1CC[C@@H]2[C@H]1CN2c1nc(OC[C@@]23CCCN2C[C@H](F)C3)nc2c(F)c(-c3ccc(F)c4sc(N)c(C#N)c34)c(C(F)(F)F)cc12 [Compound 514]	100 to 1000 nM	100 to 1000 nM	100 to 1000 nM	100 to 1000 nM	< 100 nM	< 100 nM	–	–	–	–	–	–	–	–	–	–
CN1CCN(c2nc(OC[C@@]34CCCN3C[C@H](F)C4)nc3c(F)c(-c4ccc(F)c5sc(N)c(C#N)c45)c(C(F)(F)F)cc23)CC1=O [Compound 257]	–	–	–	–	< 100 nM	< 100 nM	–	–	–	–	–	–	100 to 1000 nM	1000 to 10000 nM	1000 to 10000 nM	100 to 1000 nM
CCN(c1nc(OC[C@@]23CCCN2C[C@H](F)C3)nc2c(F)c(-c3ccc(F)c4sc(N)c(C#N)c34)c(C(F)(F)F)cc12)[C@H]1C[C@H](COC)N(C(=O)OC)C1 (atropisomer, axis not shown) [Compound 718]	–	–	–	–	–	–	< 100 nM	< 100 nM	< 100 nM	< 100 nM	< 100 nM	< 100 nM	–	–	–	–
CC[C@@H](C)C(=O)N1CC[C@H](N(CC)c2nc(OC[C@@]34CCCN3C[C@H](F)C4)nc3c(F)c(-c4ccc(F)c5sc(N)c(C#N)c45)c(C(F)(F)F)cc23)C1 (atropisomer, axis not shown) [Compound 563]	< 100 nM	100 to 1000 nM	100 to 1000 nM	100 to 1000 nM	< 100 nM	< 100 nM	–	–	–	–	–	–	–	–	–	–
CCN(c1nc(OC[C@@]23CCCN2C[C@H](F)C3)nc2c(F)c(-c3ccc(F)c4sc(N)c(C#N)c34)c(C(F)(F)F)cc12)[C@H]1C[C@H]2CN(C3CC3)C(=O)N2C1 (atropisomer, axis not shown) [Compound 775]	–	–	–	–	–	–	< 100 nM	< 100 nM	< 100 nM	< 100 nM	< 100 nM	< 100 nM	–	–	–	–
CCN(c1nc(OC[C@@]23CCCN2C[C@H](F)C3)nc2c(F)c(-c3ccc(F)c4sc(N)c(C#N)c34)c(C(F)(F)F)cc12)[C@H]1CCN(C(=O)CCC#N)C1 (atropisomer, axis not shown) [Compound 555]	< 100 nM	< 100 nM	< 100 nM	< 100 nM	< 100 nM	< 100 nM	–	–	–	–	–	–	–	–	–	–
CCN(c1nc(OC[C@@]23CCCN2C[C@H](F)C3)nc2c(F)c(-c3ccc(F)c4sc(N)c(C#N)c34)c(C(F)(F)F)cc12)[C@H]1C[C@@H](COC)N(C(=O)N(C)C)C1 (atropisomer, axis not shown) [Compound 713]	–	–	–	–	–	–	100 to 1000 nM	100 to 1000 nM	100 to 1000 nM	100 to 1000 nM	< 100 nM	< 100 nM	–	–	–	–
CC(=O)N1CCC(N(C)c2nc(OC[C@@]34CCCN3C[C@H](F)C4)nc3c(F)c(-c4ccc(F)c5sc(N)c(C#N)c45)c(C(F)(F)F)cc23)CC1 [Compound 296]	100 to 1000 nM	100 to 1000 nM	100 to 1000 nM	100 to 1000 nM	< 100 nM	100 to 1000 nM	–	–	–	–	–	–	–	–	–	–
CC(=O)N1CC[C@H](N(C)c2nc(OC[C@@H]3CC4(CC4)CN3C)nc3c(F)c(-c4ccc(F)c5sc(N)c(C#N)c45)c(C(F)(F)F)cc23)[C@@H]1C [Compound 227]	–	–	–	–	100 to 1000 nM	100 to 1000 nM	–	–	–	–	–	–	1000 to 10000 nM	> 10000 nM	> 10000 nM	> 10000 nM
C[C@H]1N(C(=O)C2CC2)CC[C@@]1(C)N(C)c1nc(OC[C@@]23CCCN2C[C@H](F)C3)nc2c(F)c(-c3ccc(F)c4sc(N)c(C#N)c34)c(C(F)(F)F)cc12 [Compound 344]	1000 to 10000 nM	> 10000 nM	1000 to 10000 nM	100 to 1000 nM	< 100 nM	100 to 1000 nM	–	–	–	–	–	–	–	–	–	–
N#Cc1c(N)sc2c(F)ccc(-c3c(C(F)(F)F)cc4c(N5CCCCCC5)nc(OC[C@@]56CCCN5C[C@H](F)C6)nc4c3F)c12 [Compound 305]	100 to 1000 nM	100 to 1000 nM	100 to 1000 nM	100 to 1000 nM	< 100 nM	< 100 nM	–	–	–	–	–	–	–	–	–	–
CCN(c1nc(OC[C@@]23CCCN2C[C@H](F)C3)nc2c(F)c(-c3ccc(F)c4sc(N)c(C#N)c34)c(C(F)(F)F)cc12)[C@H]1C[C@H](C)N(C(=O)[C@@H](C)OC)C1 (atropisomer, axis not shown) [Compound 747]	–	–	–	–	–	–	100 to 1000 nM	100 to 1000 nM	100 to 1000 nM	100 to 1000 nM	< 100 nM	< 100 nM	–	–	–	–
CCN(c1nc(OC[C@@]23CCCN2C[C@H](F)C3)nc2c(F)c(-c3ccc(F)c4sc(N)c(C#N)c34)c(C(F)(F)F)cc12)[C@H]1C[C@@H](C)N(C(=O)N2CC(F)C2)C1 (atropisomer, axis not shown) [Compound 782]	–	–	–	–	–	–	100 to 1000 nM	100 to 1000 nM	100 to 1000 nM	100 to 1000 nM	< 100 nM	< 100 nM	–	–	–	–
CCN(c1nc(OC[C@@]23CCCN2C[C@H](F)C3)nc2c(F)c(-c3ccc(F)c4sc(N)c(C#N)c34)c(C(F)(F)F)cc12)[C@H]1CCN(C(=O)OC(C)C)C1 (atropisomer, axis not shown) [Compound 556]	< 100 nM	< 100 nM	100 to 1000 nM	100 to 1000 nM	< 100 nM	< 100 nM	–	–	–	–	–	–	–	–	–	–
CC(=O)N1C[C@@H]2CC[C@H]1CN2c1nc(OC[C@@]23CCCN2C[C@H](F)C3)nc2c(F)c(-c3ccc(F)c4sc(N)c(C#N)c34)c(C(F)(F)F)cc12 [Compound 455]	100 to 1000 nM	100 to 1000 nM	1000 to 10000 nM	100 to 1000 nM	< 100 nM	100 to 1000 nM	–	–	–	–	–	–	–	–	–	–
CCN(c1nc(OC[C@@]23CCCN2C[C@H](F)C3)nc2c(F)c(-c3ccc(F)c4sc(N)c(C#N)c34)c(C(F)(F)F)cc12)[C@H]1CCN(C(=O)[C@@H](C)OC)[C@@H]1C (atropisomer, axis not shown) [Compound 806]	–	–	–	–	–	–	< 100 nM	< 100 nM	100 to 1000 nM	< 100 nM	< 100 nM	< 100 nM	–	–	–	–
